# EPA's ToxRefDB 2
# Legend:
# rat [1] = conditions: Multigenerational reproductive toxicity study, Sprague-Dawley, Oral, Feed, dose end: 1 generation
# rat [2] = conditions: Sub-acute dermal toxicity, other, Topical, dose end: 28 day, group: systemic
# rat [3] = conditions: Subchronic oral toxicity in rodents, sprague dawley, Feed, dose end: 3 month, group: systemic
# rat [4] = conditions: Multigenerational reproductive toxicity study, sprague dawley, Oral, Feed, dose end: 2 generation
# rat [5] = conditions: Subchronic inhalation toxicity, other, Nose-Only, dose end: 90 day, group: systemic, systemic / pathology microscopic / nose / [other] + systemic / pathology microscopic / nose / degeneration + systemic / pathology …
# rabbit = conditions: Prenatal developmental toxicity study, new zealand white, Oral, Gavage/Intubation, dose end: 18 GD
# mouse [6] = conditions: Carcinogenicity, b6c3f1, Oral, Feed, dose end: 24 month, group: systemic
# mouse [7] = conditions: Carcinogenicity, b6c3f1, Oral, Feed, dose end: 24 month, group: systemic; remark: listed apart in the source
# dog = conditions: Chronic toxicity; beagle; Oral; Feed; dose end: 53 week; group: systemic; systemic / clinical chemistry / alkaline phosphatase (alp/alk) / alkaline phosphatase (alp/alk) + systemic / clinical chemistry / …
# rat [8] = conditions: Prenatal developmental toxicity study, sprague dawley, Oral, Gavage/Intubation, dose end: 15 GD
# rat [9] = conditions: Combined chronic toxicity/carcinogenicity, fischer, Oral, Feed, dose end: 24 month, group: systemic
# mouse [10] = conditions: Subchronic oral toxicity in rodents, b6c3f1, Feed, dose end: 96 day, group: systemic, systemic / organ weight / liver / absolute + systemic / organ weight / liver / relative to body weight + systemic / organ weight / liver / …
# rat [11] = conditions: Multigenerational reproductive toxicity study, fischer, Oral, Feed, dose end: 2 generation
# rat [12] = conditions: Prenatal developmental toxicity study, sprague dawley, Oral, Gavage/Intubation, dose end: 16 GD, group: maternal
# rat [13] = conditions: Subchronic oral toxicity in rodents, wistar, Gavage/Intubation, dose end: 90 day, group: systemic
# rat [14] = conditions: Subchronic oral toxicity in rodents, wistar, Gavage/Intubation, dose end: 90 day, group: systemic; remark: listed apart in the source
# rat [15] = conditions: Subchronic dermal toxicity, sprague dawley, Topical, dose end: 14 week, group: systemic
# [16] = group: offspring, systemic / in life observation / body weight / offspring (pup) weight + systemic / in life observation / clinical signs / reduced activity
# [17] = group: parental, systemic / clinical chemistry / thyroid stimulating hormone (thyrotropin) (tsh) / thyroid stimulating hormone (=thyrotropin) (tsh) + …
# [18] = group: parental, systemic / in life observation / clinical signs / nasal discharge + systemic / in life observation / body weight / body weight + systemic / …
# [19] = group: reproductive, reproductive / offspring survival early / dead fetuses / dead fetuses + reproductive / offspring survival early / litter size / litter size…
# [20] = group: reproductive, reproductive / reproductive performance / reproductive performance other / NOS + reproductive / reproductive performance / pregnancy index…
# [21] = systemic / hematology / leukocyte (wbc) count differential / leukocyte (wbc) + systemic / hematology / neutrophils / neutrophils + systemic…
# [22] = systemic / pathology microscopic / thyroid gland / altered colloid + systemic / pathology microscopic / thyroid gland / hypertrophy
# [23] = systemic / clinical chemistry / cholesterol / cholesterol + systemic / clinical chemistry / phosphorus / phosphorus + systemic / pathology …
# [24] = group: offspring, developmental / developmental malformation / trunk / umbilical hernia + developmental / offspring survival late / [other] / [other] + …
# [25] = group: parental, systemic / in life observation / clinical signs / body cold to touch + systemic / in life observation / clinical signs / drooping eyelids (…
# [26] = group: parental, systemic / pathology microscopic / thyroid gland / colloid content + systemic / pathology microscopic / thyroid gland / hypertrophy + …
# [27] = group: reproductive, reproductive / reproductive performance / dystocia / dystocia + reproductive / reproductive performance / postimplantation loss / …
# [28] = group: developmental, developmental / developmental malformation / bone / misshapen
# [29] = group: maternal, systemic / in life observation / body weight / body weight gain + systemic / organ weight / liver / absolute + systemic / organ weight / …
# [30] = systemic / pathology gross / intestine small / discolored + systemic / pathology microscopic / intestine small / [other] + systemic / …
# [31] = systemic / pathology microscopic / intestine small / hyperplasia + systemic / pathology microscopic / intestine small / hypertrophy + …
# [32] = group: developmental, developmental / developmental malformation / bone / incomplete ossification + developmental / developmental malformation / bone / short …
# [33] = group: maternal, systemic / in life observation / body weight / body weight + systemic / in life observation / body weight / body weight gain + systemic / in…
# [34] = systemic / in life observation / body weight / body weight gain + systemic / pathology microscopic / kidney / adenocarcinoma + systemic / …
# [35] = group: offspring, systemic / in life observation / body weight / offspring (pup) weight + systemic / pathology microscopic / liver / vacuolization
# [36] = group: parental, systemic / organ weight / liver / absolute + systemic / organ weight / liver / relative to body weight
# [37] = systemic / in life observation / clinical signs / salivation + systemic / in life observation / food consumption / food consumption
# [38] = systemic / pathology microscopic / pharynx / lesion(s) (nos)
# [39] = systemic / in life observation / clinical signs / righting ability
# [40] = systemic / in life observation / clinical signs / righting ability + systemic / in life observation / body weight / body weight + systemic…
# [41] = systemic / pathology microscopic / bone marrow / hyperplasia
# [42] = systemic / pathology microscopic / bone marrow / hyperplasia + systemic / hematology / mean corpuscular (cell) volume (mcv) / mean …
compound,measurement,setting,value
Cc1ccc(S(=O)(=O)C(I)I)cc1 [Diiodomethyl 4-methylphenyl sulfone],LEL,rat [1]; [16],80 mg/kg/day
same,LOAEL,rat [1]; [16],> 200 mg/kg/day
same,NEL,rat [1]; [16],20 mg/kg/day
same,NOAEL,rat [1]; [16],≥ 200 mg/kg/day
same,LOAEL,rat [1]; [17],> 200 mg/kg/day
same,NOAEL,rat [1]; [17],≥ 200 mg/kg/day
same,LEL,rat [1]; [18],20 mg/kg/day
same,NEL,rat [1]; [18],< 20 mg/kg/day
same,LEL,rat [1]; [19],80 mg/kg/day
same,NEL,rat [1]; [19],20 mg/kg/day
same,LOAEL,rat [1]; [20],> 200 mg/kg/day
same,NOAEL,rat [1]; [20],≥ 200 mg/kg/day
same,LOAEL,rat [2]; [21],> 500 mg/kg/day
same,NOAEL,rat [2]; [21],≥ 500 mg/kg/day
same,LEL,rat [2]; [22],20 mg/kg/day
same,NEL,rat [2]; [22],< 20 mg/kg/day
same,LOAEL,rat [3]; [23],80 mg/kg/day
same,NEL,rat [3]; [23],5 mg/kg/day
same,NOAEL,rat [3]; [23],20 mg/kg/day
same,LEL,rat [3]; systemic / in life observation / clinical signs / scabbing,20 mg/kg/day
same,LOAEL,rat [4]; [24],> 40 mg/kg/day
same,NEL,rat [4]; [24],2.5 mg/kg/day
same,NOAEL,rat [4]; [24],≥ 40 mg/kg/day
same,LEL,"rat [4]; group: offspring, systemic / in life observation / body weight / offspring (pup) weight + developmental / offspring survival late / viability index / …",10 mg/kg/day
same,LOAEL,rat [4]; [25],> 40 mg/kg/day
same,NOAEL,rat [4]; [25],≥ 40 mg/kg/day
same,LEL,rat [4]; [26],2.5 mg/kg/day
same,NEL,rat [4]; [26],< 2.5 mg/kg/day
same,LEL,rat [4]; [27],40 mg/kg/day
same,LOAEL,rat [4]; [27],> 40 mg/kg/day
same,NEL,rat [4]; [27],10 mg/kg/day
same,NOAEL,rat [4]; [27],≥ 40 mg/kg/day
same,LEL,rat [5],0.41 ppm
same,LOAEL,rat [5],> 1.74 ppm
same,NEL,rat [5],0.0579 ppm
same,NOAEL,rat [5],≥ 1.74 ppm
Clc1cccc(C(Cl)(Cl)Cl)n1 [Nitrapyrin],LEL,rabbit; [28],30 mg/kg/day
same,LOAEL,rabbit; [28],30 mg/kg/day
same,NEL,rabbit; [28],10 mg/kg/day
same,NOAEL,rabbit; [28],10 mg/kg/day
same,LEL,rabbit; [29],30 mg/kg/day
same,LOAEL,rabbit; [29],30 mg/kg/day
same,NEL,rabbit; [29],10 mg/kg/day
same,NOAEL,rabbit; [29],10 mg/kg/day
same,LOAEL,mouse [6]; [30],75 mg/kg/day
same,NEL,mouse [6]; [30],5 mg/kg/day
same,NOAEL,mouse [6]; [30],25 mg/kg/day
same,LEL,mouse [6]; systemic / pathology microscopic / intestine small / [other] + systemic / pathology gross / intestine small / discolored + systemic / …,25 mg/kg/day
same,LOAEL,mouse [7]; [31],125 mg/kg/day
same,NOAEL,mouse [7]; [31],< 125 mg/kg/day
same,NEL,mouse [7]; systemic / pathology microscopic / liver / hypertrophy + systemic / pathology microscopic / stomach / hyperkeratosis + systemic / pathology …,250 mg/kg/day
same,LEL,dog,15 mg/kg/day
same,LOAEL,dog,15 mg/kg/day
same,NEL,dog,3 mg/kg/day
same,NOAEL,dog,3 mg/kg/day
same,LEL,rat [8]; [32],120 mg/kg/day
same,LOAEL,rat [8]; [32],120 mg/kg/day
same,NEL,rat [8]; [32],50 mg/kg/day
same,NOAEL,rat [8]; [32],50 mg/kg/day
same,LOAEL,rat [8]; [33],120 mg/kg/day
same,NEL,rat [8]; [33],15 mg/kg/day
same,NOAEL,rat [8]; [33],50 mg/kg/day
same,LEL,"rat [8]; group: maternal, systemic / in life observation / body weight / body weight gain",50 mg/kg/day
same,LOAEL,rat [9]; systemic / in life observation / body weight / body weight gain,20 mg/kg/day
same,LEL,rat [9]; systemic / in life observation / body weight / body weight gain + systemic / in life observation / body weight / body weight,20 mg/kg/day
same,NEL,rat [9]; [34],5 mg/kg/day
same,NOAEL,rat [9]; [34],5 mg/kg/day
same,LEL,mouse [10],200 mg/kg/day
same,LOAEL,mouse [10],200 mg/kg/day
same,NEL,mouse [10],< 200 mg/kg/day
same,NOAEL,mouse [10],< 200 mg/kg/day
same,LOAEL,rat [11]; [35],75 mg/kg/day
same,NEL,rat [11]; [35],20 mg/kg/day
same,NOAEL,rat [11]; [35],20 mg/kg/day
same,LEL,"rat [11]; group: offspring, systemic / in life observation / body weight / offspring (pup) weight + systemic / pathology microscopic / liver / vacuolization + systemic…",75 mg/kg/day
same,NOAEL,"rat [11]; group: parental, systemic / organ weight / kidney / absolute + systemic / organ weight / kidney / relative to body weight + systemic / in life observation / …",5 mg/kg/day
same,LOAEL,"rat [11]; group: parental, systemic / organ weight / kidney / absolute + systemic / organ weight / kidney / relative to body weight + systemic / organ weight / liver…",20 mg/kg/day
same,LEL,rat [11]; [36],5 mg/kg/day
same,NEL,rat [11]; [36],< 5 mg/kg/day
"CCCCCCCCCCCCN(CCCN)CCCN [1,3-Propanediamine, N-(3-aminopropyl)-N-dodecyl-]",LEL,rat [12]; systemic / in life observation / clinical signs / salivation,50 mg/kg/day
same,LOAEL,rat [12]; [37],> 200 mg/kg/day
same,NEL,rat [12]; [37],25 mg/kg/day
same,NOAEL,rat [12]; [37],≥ 200 mg/kg/day
same,LOAEL,rat [13]; systemic / pathology microscopic / kidney / basophilia + systemic / pathology microscopic / kidney / dilatation,90 mg/kg/day
same,LEL,rat [13]; [38],5 mg/kg/day
same,NEL,rat [13]; [38],< 5 mg/kg/day
same,LEL,rat [14]; [39],10 mg/kg/day
same,LOAEL,rat [14]; [39],10 mg/kg/day
same,NEL,rat [14]; [40],5 mg/kg/day
same,NOAEL,rat [14]; [40],5 mg/kg/day
same,LOAEL,rat [15]; [41],5 mg/kg/day
same,NOAEL,rat [15]; [41],< 5 mg/kg/day
same,LEL,rat [15]; [42],5 mg/kg/day
same,NEL,rat [15]; [42],< 5 mg/kg/day
